Assay results as given in ChEMBL document CHEMBL1201861, “Genomics of Drug Sensitity in Cancer screening data, Wellcome Trust Sanger Institute”.

Tests used:
Assay in all cases: cells
Details in all cases: Homo sapiens
D-263MG = type: functional, cell-based
Description: SANGER: Inhibition of human D-263MG cell growth in a cell viability assay.

NKM-1 = type: functional, cell-based;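 also: growth inhibition of NKM-1 cells, read out with a cell viability assay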
Description: SANGER: Inhibition of human NKM-1 cell growth in a cell viability assay.

J-RT3-T3-5 = type: functional, cell-based;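 also: cell viability assay measuring growth inhibition of human J-RT3-T3-5 cells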
Description: SANGER: Inhibition of human J-RT3-T3-5 cell growth in a cell viability assay.

DSH1 = type: functional, cell-based;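 also: growth inhibition of human DSH1 cells, measured with a cell viability readout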
Description: SANGER: Inhibition of human DSH1 cell growth in a cell viability assay.

HT = type: functional, cell-based
Description: SANGER: Inhibition of human HT cell growth in a cell viability assay.

ONS-76 = type: functional, cell-based;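 also: growth inhibition of human ONS-76 cells, read out with a cell viability assay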
Description: SANGER: Inhibition of human ONS-76 cell growth in a cell viability assay.

LS-411N = type: functional, cell-based
K562 = type: functional, cell-based
Description: SANGER: Inhibition of human K-562 cell growth in a cell viability assay.

NCI-H526 = type: functional, cell-based;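 also: growth inhibition of the human NCI-H526 cell line, measured by a cell viability assay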
Description: SANGER: Inhibition of human NCI-H526 cell growth in a cell viability assay.

NCI-H1355 = type: functional, cell-based;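 also: growth inhibition of human NCI-H1355 cells, read out by a cell viability assay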
Description: SANGER: Inhibition of human NCI-H1355 cell growth in a cell viability assay.

DOHH-2 = type: functional, cell-based;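 also: growth inhibition of human DOHH-2 cells, read out with a cell viability assay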
Description: SANGER: Inhibition of human DOHH-2 cell growth in a cell viability assay.

EW-16 = type: functional, cell-based;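 also: growth inhibition of human EW-16 cells, read out as cell viability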
Description: SANGER: Inhibition of human EW-16 cell growth in a cell viability assay.

MHH-NB-11 = type: functional, cell-based;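 also: growth inhibition of human MHH-NB-11 cells, read out by a cell viability assay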
Description: SANGER: Inhibition of human MHH-NB-11 cell growth in a cell viability assay.

L-428 = type: functional, cell-based
Description: SANGER: Inhibition of human L-428 cell growth in a cell viability assay.

GR-ST = type: functional, cell-based
Description: SANGER: Inhibition of human GR-ST cell growth in a cell viability assay.

LAMA-84 = type: functional, cell-based;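 also: growth inhibition of LAMA-84 cells, read out with a cell viability assay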
Description: SANGER: Inhibition of human LAMA-84 cell growth in a cell viability assay.

RS4-11 = type: functional, cell-based;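 also: growth inhibition of RS4-11 cells, read out by a cell viability assay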
Description: SANGER: Inhibition of human RS4-11 cell growth in a cell viability assay.

HL-60 = type: functional, cell-based;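 also: growth inhibition of human HL-60 cells, read out with a cell viability assay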
Description: SANGER: Inhibition of human HL-60 cell growth in a cell viability assay.

BT-474 = type: functional, cell-based
Description: SANGER: Inhibition of human BT-474 cell growth in a cell viability assay.

NCI-H720 = type: functional, cell-based;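 also: growth inhibition of human NCI-H720 cells determined by a cell viability assay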
Description: SANGER: Inhibition of human NCI-H720 cell growth in a cell viability assay.

LS-1034 = type: functional, cell-based
Description: SANGER: Inhibition of human LS-1034 cell growth in a cell viability assay.

L-363 = type: functional, cell-based
Description: SANGER: Inhibition of human L-363 cell growth in a cell viability assay.

C2BBe1 = type: functional, cell-based;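 also: growth inhibition of C2BBe1 cells, read out through a viability assay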
Description: SANGER: Inhibition of human C2BBe1 cell growth in a cell viability assay.

SH-4 = type: functional, cell-based;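 also: growth inhibition of SH-4 cells, read out with a cell viability assay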
Description: SANGER: Inhibition of human SH-4 cell growth in a cell viability assay.

COLO-320-HSR = type: functional, cell-based;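 also: growth inhibition of COLO-320-HSR cells, determined with a cell viability assay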
Description: SANGER: Inhibition of human COLO-320-HSR cell growth in a cell viability assay.

ML-2 = type: functional, cell-based;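 also: growth inhibition of ML-2 cells, measured with a cell viability readout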
Description: SANGER: Inhibition of human ML-2 cell growth in a cell viability assay.

EM-2 = type: functional, cell-based;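 also: growth inhibition of EM-2 cells, read out with a cell viability assay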
Description: SANGER: Inhibition of human EM-2 cell growth in a cell viability assay.

IST-MES1 = type: functional, cell-based;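 also: growth inhibition of IST-MES1 cells, measured with a cell viability assay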
Description: SANGER: Inhibition of human IST-MES1 cell growth in a cell viability assay.

CTB-1 = type: functional, cell-based
Description: SANGER: Inhibition of human CTB-1 cell growth in a cell viability assay.

MV4-11 = type: functional, cell-based, MV-4-11;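 also: cell viability readout measuring growth inhibition of human MV-4-11 cells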
Description: SANGER: Inhibition of human MV-4-11 cell growth in a cell viability assay.

LU-134-A = type: functional, cell-based
Description: SANGER: Inhibition of human LU-134-A cell growth in a cell viability assay.

ES7 = type: functional, cell-based;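 also: growth inhibition of cultured human ES7 cells, read out as cell viability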
Description: SANGER: Inhibition of human ES7 cell growth in a cell viability assay.

NCI-H747 = type: functional, cell-based;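 also: growth inhibition of human NCI-H747 cells, read out by a cell viability assay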
Description: SANGER: Inhibition of human NCI-H747 cell growth in a cell viability assay.

PSN1 = type: functional, cell-based;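 also: suppression of growth of human PSN1 cells, read out by a cell viability assay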
Description: SANGER: Inhibition of human PSN1 cell growth in a cell viability assay.

OVCAR-4 = type: functional, cell-based;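 also: growth inhibition of human OVCAR-4 cells, measured with a cell viability assay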
Description: SANGER: Inhibition of human OVCAR-4 cell growth in a cell viability assay.

NMC-G1 = type: functional, cell-based;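 also: growth inhibition of the NMC-G1 cell line, measured with a cell viability read-out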
Description: SANGER: Inhibition of human NMC-G1 cell growth in a cell viability assay.

KE-37 = type: functional, cell-based;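 also: growth inhibition of KE-37 cells, read out with a cell viability assay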
Description: SANGER: Inhibition of human KE-37 cell growth in a cell viability assay.

NCI-H1299 = type: functional, cell-based;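 also: growth inhibition of human NCI-H1299 cells, read out by a cell viability assay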
Description: SANGER: Inhibition of human NCI-H1299 cell growth in a cell viability assay.

SW 962 = type: functional, cell-based;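 also: growth inhibition of human SW962 cells, read out by a cell viability assay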
Description: SANGER: Inhibition of human SW962 cell growth in a cell viability assay.

NCI-H82 = type: functional, cell-based;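 also: growth inhibition of NCI-H82 cells, measured with a cell viability readout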
Description: SANGER: Inhibition of human NCI-H82 cell growth in a cell viability assay.

SF-126 = type: functional, cell-based;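 also: growth inhibition of human SF126 cells, read out with a cell viability assay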
Description: SANGER: Inhibition of human SF126 cell growth in a cell viability assay.

TE-5 = type: functional, cell-based;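 also: inhibition of cell growth, read out by a cell viability assay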
Description: SANGER: Inhibition of human TE-5 cell growth in a cell viability assay.

GT3TKB = type: functional, cell-based;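 also: growth inhibition of the cell line, read out with a cell viability assay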
Description: SANGER: Inhibition of human GT3TKB cell growth in a cell viability assay.

EW-11 = type: functional, cell-based;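 also: growth inhibition of human EW-11 cells, measured with a cell viability assay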
Description: SANGER: Inhibition of human EW-11 cell growth in a cell viability assay.

DU-4475 = type: functional, cell-based
Description: SANGER: Inhibition of human DU-4475 cell growth in a cell viability assay.

VA-ES-BJ = type: functional, cell-based;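 also: growth inhibition of the VA-ES-BJ cell line, read out by a cell viability assay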
Description: SANGER: Inhibition of human VA-ES-BJ cell growth in a cell viability assay.

KS-1 = type: functional, cell-based;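 also: growth inhibition of KS-1 cells, read out with a cell viability assay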
Description: SANGER: Inhibition of human KS-1 cell growth in a cell viability assay.

MLMA = type: functional, cell-based;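 also: growth inhibition of MLMA cells (human), determined through a cell viability readout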
Description: SANGER: Inhibition of human MLMA cell growth in a cell viability assay.

SF-268 = type: functional, cell-based;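 also: growth inhibition of SF-268 cells determined with a cell viability assay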
Description: SANGER: Inhibition of human SF268 cell growth in a cell viability assay.

HCE-T = type: functional, cell-based;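 also: cell viability assay read-out, reporting inhibition of HCE-T cell growth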
Description: SANGER: Inhibition of human HCE-T cell growth in a cell viability assay.

ETK-1 = type: functional, cell-based;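 also: growth inhibition of human ETK-1 cells, read out with a cell viability assay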
Description: SANGER: Inhibition of human ETK-1 cell growth in a cell viability assay.

MOLT-4 = type: functional, cell-based;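 also: growth inhibition of MOLT-4 cells, determined with a cell viability readout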
Description: SANGER: Inhibition of human MOLT-4 cell growth in a cell viability assay.

MZ2-MEL = type: functional, cell-based;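 also: growth inhibition of MZ2-MEL cells read out with a cell viability assay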
Description: SANGER: Inhibition of human MZ2-MEL cell growth in a cell viability assay.

LAN-6 = type: functional, cell-based;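 also: growth inhibition of LAN-6 cells, determined with a cell viability assay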
Description: SANGER: Inhibition of human LAN-6 cell growth in a cell viability assay.

no-10 = type: functional, cell-based;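 also: growth inhibition of no-10 cells, read out with a cell viability assay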
Description: SANGER: Inhibition of human no-10 cell growth in a cell viability assay.

MC116 = type: functional, cell-based;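 also: growth inhibition of MC116 cells, read out with a cell viability assay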
Description: SANGER: Inhibition of human MC116 cell growth in a cell viability assay.

BB49-HNC = type: functional, cell-based;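 also: cell viability assay read-out, reported as inhibition of BB49-HNC cell growth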
Description: SANGER: Inhibition of human BB49-HNC cell growth in a cell viability assay.

HD-MY-Z = type: functional, cell-based;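 also: growth inhibition of HD-MY-Z cells, read out with a cell viability assay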
Description: SANGER: Inhibition of human HD-MY-Z cell growth in a cell viability assay.

NOMO-1 = type: functional, cell-based;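 also: growth inhibition of human NOMO-1 cells measured by a cell viability assay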
Description: SANGER: Inhibition of human NOMO-1 cell growth in a cell viability assay.

LXF-289 cell line = type: functional, cell-based
Description: SANGER: Inhibition of human LXF-289 cell growth in a cell viability assay.

COLO-829 = type: functional, cell-based
Description: SANGER: Inhibition of human COLO-829 cell growth in a cell viability assay.

NCI-H2126 = type: functional, cell-based;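 also: growth inhibition of the cancer cell line, determined with a cell viability readout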
Description: SANGER: Inhibition of human NCI-H2126 cell growth in a cell viability assay.

MFH-ino = type: functional, cell-based;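 also: growth inhibition of human MFH-ino cells, read out by a cell viability assay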
Description: SANGER: Inhibition of human MFH-ino cell growth in a cell viability assay.

LB373-MEL-D = type: functional, cell-based
Description: SANGER: Inhibition of human LB373-MEL-D cell growth in a cell viability assay.

Structure (SMILES): CC(=O)c1c(C)c2cnc(Nc3ccc(N4CCNCC4)cn3)nc2n(C2CCCC2)c1=O [PALBOCICLIB]
- IC50 (D-263MG): 0.717 µM
- IC50 (NKM-1): 0.412 µM
- IC50 (J-RT3-T3-5): 0.936 µM
- IC50 (DSH1): > 4 µM
- IC50 (HT): > 4 µM
- IC50 (ONS-76): 0.678 µM
- IC50 (LS-411N): > 4 µM
- IC50 (K562): > 4 µM
- IC50 (NCI-H526): > 4 µM
- IC50 (NCI-H1355): 2.56 µM
- IC50 (DOHH-2): > 4 µM
- IC50 (EW-16): 0.604 µM
- IC50 (MHH-NB-11): 0.22 µM
- IC50 (L-428): > 4 µM
- IC50 (GR-ST): > 4 µM
- IC50 (LAMA-84): 0.258 µM
- IC50 (RS4-11): 0.505 µM
- IC50 (HL-60): 0.341 µM
- IC50 (BT-474): > 4 µM
- IC50 (NCI-H720): > 4 µM
- IC50 (LS-1034): > 4 µM
- IC50 (L-363): 1.87 µM
- IC50 (C2BBe1): > 4 µM
- IC50 (SH-4): > 4 µM
- IC50 (COLO-320-HSR): > 4 µM
- IC50 (ML-2): 1.21 µM
- IC50 (EM-2): 0.651 µM
- IC50 (IST-MES1): 3.83 µM
- IC50 (CTB-1): 0.405 µM
- IC50 (MV4-11): 0.514 µM
- IC50 (LU-134-A): > 4 µM
- IC50 (ES7): 0.273 µM
- IC50 (NCI-H747): 2.32 µM
- IC50 (PSN1): > 4 µM
- IC50 (OVCAR-4): > 4 µM
- IC50 (NMC-G1): > 4 µM
- IC50 (KE-37): 2.09 µM
- IC50 (NCI-H1299): 3.05 µM
- IC50 (SW 962): 0.809 µM
- IC50 (NCI-H82): > 4 µM
- IC50 (SF-126): > 4 µM
- IC50 (TE-5): > 4 µM
- IC50 (GT3TKB): 2.59 µM
- IC50 (EW-11): > 4 µM
- IC50 (DU-4475): > 4 µM
- IC50 (VA-ES-BJ): 0.732 µM
- IC50 (KS-1): > 4 µM
- IC50 (MLMA): > 4 µM
- IC50 (SF-268): 2.23 µM
- IC50 (HCE-T): > 4 µM
- IC50 (ETK-1): 3.05 µM
- IC50 (MOLT-4): 0.345 µM
- IC50 (MZ2-MEL): 1.8 µM
- IC50 (LAN-6): > 4 µM
- IC50 (no-10): > 4 µM
- IC50 (MC116): > 4 µM
- IC50 (BB49-HNC): > 4 µM
- IC50 (HD-MY-Z): > 4 µM
- IC50 (NOMO-1): > 4 µM
- IC50 (LXF-289 cell line): > 4 µM

Structure (SMILES): CCCS(=O)(=O)Nc1ccc(F)c(C(=O)c2c[nH]c3ncc(Cl)cc23)c1F [PLX-4720]
- IC50 (D-263MG): > 10 µM
- IC50 (NKM-1): > 10 µM
- IC50 (J-RT3-T3-5): > 10 µM
- IC50 (DSH1): > 10 µM
- IC50 (COLO-829): 0.39 µM
- IC50 (HT): > 10 µM
- IC50 (ONS-76): > 10 µM
- IC50 (LS-411N): > 10 µM
- IC50 (K562): > 10 µM
- IC50 (NCI-H526): > 10 µM
- IC50 (NCI-H1355): > 10 µM
- IC50 (DOHH-2): > 10 µM
- IC50 (EW-16): > 10 µM
- IC50 (MHH-NB-11): > 10 µM
- IC50 (L-428): > 10 µM
- IC50 (GR-ST): > 10 µM
- IC50 (LAMA-84): > 10 µM
- IC50 (RS4-11): 9.6 µM
- IC50 (HL-60): > 10 µM
- IC50 (BT-474): > 10 µM
- IC50 (NCI-H720): > 10 µM
- IC50 (LS-1034): > 10 µM
- IC50 (NCI-H2126): > 10 µM
- IC50 (L-363): > 10 µM
- IC50 (C2BBe1): > 10 µM
- IC50 (SH-4): 0.414 µM
- IC50 (COLO-320-HSR): > 10 µM
- IC50 (MFH-ino): > 10 µM
- IC50 (ML-2): > 10 µM
- IC50 (EM-2): > 10 µM
- IC50 (IST-MES1): > 10 µM
- IC50 (CTB-1): 3.4 µM
- IC50 (MV4-11): > 10 µM
- IC50 (LB373-MEL-D): > 10 µM
- IC50 (LU-134-A): > 10 µM
- IC50 (ES7): > 10 µM
- IC50 (NCI-H747): > 10 µM
- IC50 (PSN1): > 10 µM
- IC50 (OVCAR-4): > 10 µM
- IC50 (NMC-G1): > 10 µM
- IC50 (KE-37): > 10 µM
- IC50 (NCI-H1299): > 10 µM
- IC50 (SW 962): > 10 µM
- IC50 (NCI-H82): > 10 µM
- IC50 (SF-126): > 10 µM
- IC50 (TE-5): > 10 µM
- IC50 (GT3TKB): > 10 µM
- IC50 (EW-11): > 10 µM
- IC50 (DU-4475): 0.0746 µM
- IC50 (VA-ES-BJ): > 10 µM
- IC50 (KS-1): > 10 µM
- IC50 (MLMA): > 10 µM
- IC50 (SF-268): > 10 µM
- IC50 (HCE-T): > 10 µM
- IC50 (ETK-1): > 10 µM
- IC50 (MOLT-4): > 10 µM
- IC50 (MZ2-MEL): > 10 µM
- IC50 (LAN-6): > 10 µM
- IC50 (no-10): > 10 µM
- IC50 (MC116): > 10 µM
- IC50 (BB49-HNC): > 10 µM
- IC50 (HD-MY-Z): > 10 µM
- IC50 (NOMO-1): > 10 µM
- IC50 (LXF-289 cell line): > 10 µM
